Assay results published in patent US9278982B2, “Targeting human thymidylate kinase induces DNA repair toxicity in malignant tumor cells” (NATIONAL YANG-MING UNIVERSITY, priority 2010, dated 2016).

How the values were obtained:
[1] = target: T1, purified human thymidylate kinase (Homo sapiens, UniProt P23919); assay: NADH-coupled TMPK assay (kinetic parameters); assay type: biochemical; conditions: for Ki: 10 min pre-incubation, average of three YMU1 concentrations
T1 construct: GST (N, cleaved yes); made in house; host or cells: E. coli JM109 (pGEX-2T-hTMPK)
T1 sequence (P23919 1-212): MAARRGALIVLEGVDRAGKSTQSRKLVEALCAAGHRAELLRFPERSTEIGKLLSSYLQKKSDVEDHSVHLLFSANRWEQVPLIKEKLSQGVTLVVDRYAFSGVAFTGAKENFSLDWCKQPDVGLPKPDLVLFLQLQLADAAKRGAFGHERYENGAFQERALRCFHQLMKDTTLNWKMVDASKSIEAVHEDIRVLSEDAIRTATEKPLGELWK
Method: The inhibitory mode of YMU1 was determined by pre-incubating different concentrations of YMU1 with purified hTMPK protein and measuring initial velocity using the conventional TMPK assay.
All reactions were performed in 96-well plates in an assay volume of 100 μl. The activity of hTMPK was measured at 25° C. using a modified NADH coupled colorimetric assay as described (Agarwal et al., 1978; Miyata et al., 2003; Ostermann et al., 2003), in which purified hTMPK was added to the buffer containing 100 mM Tris-HCl, pH 7.5, 100 mM KCl, 10 mM MgCl2, 0.5 mM phosphoenol pyruvate, 0.25 mM NADH, 5 units of lactate dehydrogenase, 4 units of pyruvate kinase, 1 mM ATP, and 200 μM dTMP. The change of NADH was measured by reading the absorbance at 340 nm. One unit of TMPK activity is defined as the conversion of 1 μmole of TMP to TDP per minute.

MDA-MB231 cells [2] = assay: Repair of doxorubicin-induced DNA lesions (γH2AX, Rad51, XRCC1 foci staining); assay type: cell-based, human
Method: FIG. 14. Effect of YMU1 on genomic toxicity and DNA repair. […] After overnight, cells were exposed to doxorubicin and recovered. […]
For γH2AX, Rad51 and XRCC1 staining, cells were fixed with 4% paraformaldehyde for 30 min at room temperature and were incubated with TBS (50 mM Tris-HCl, pH 7.4, 150 mM NaCl) plus 0.3% Triton X-100 for 5 min. The coverslips were blocked with MAXblock™ (Active Motif) for 1 h at 37° C., followed by staining with primary antibodies: anti-γH2AX monoclonal antibody (1:1000), anti-Rad51 polyclonal antibody (1:500) or anti-XRCC1 monoclonal antibody (1:500) overnight at 4° C. After extensive washing, cells were stained with secondary antibodies and Hoechst 33342 for 1 h at room temperature. After mounting, cells were analyzed and photographed with a Carl Zeiss fluorescence microscope equipped with AxioCam digital camera and Axio Vision Rel. 4.8 imaging software.

MDA-MB231 cells [3] = assay: Comet assay of DNA repair efficiency after doxorubicin; assay type: cell-based, human; conditions: YMU1 treatment, after removal of doxorubicin (0.1 μM)
Method: FIG. 15. […] DNA repair efficiency was measured by comet assay at indicated time after removal of doxorubicin (0.1 μM) in MDA-MB231 cells. Image of DNA comet was acquired and quantified by using scion image software for tail moment determination. Data were expressed as mean±s.d. by counting at least 70 comets per sample in 3 independent experiments. **, P<0.01 based on a two-tailed Student's t-test.
Alkaline comet assays were performed using a Trevigen's Comet Assay kit (4250-050-k) according to the manufacturer's instruction. DNA was stained with SYBR Green, and slides were photographed digitally (Olympus BX51 microscope and Olympus camera). Tail moments were analyzed using Scoin Image software.

panel of cell lines = assay: Doxorubicin sensitization, MTS viability assay, summary over the panel of cell lines; assay type: cell-based, human
Method: FIG. 16. In vitro and in vivo effect of YMU1 on doxorubicin sensitization. (A) A panel of cell lines were pre-treated with vehicle, YMU1 (compound 21), D6 (ethyl 4-(2-chloroacetyl)piperazine-1-carboxylate) or D7 (compound 28) for 3 days and were exposed to different concentration of doxorubicin for 4 h. […] The enhancement (fold) of doxorubicin sensitivity in each cell line was calculated. Data represent mean±s.d., n=3; each experiment was quadruplex. Inset indicates the IC50 value of doxorubicin in various cell lines. […] Following overnight culture, cells were refreshed with growth medium. After 14 days of culture, colonies were fixed, stained by crystal violet and counted. (C) HCT-116 p53^−/− cells were subcutaneously implanted in the right flank of Balb/c nude mice (each experimental group n=8). Arrow indicated the time of stopping drug treatment. The tumor volume was estimated as described in Methods of the Invention section. (D) After 2 weeks recovered from treatment, mice were sacrificed for tumor weight measurement. Data represent mean±s.e.m; **, P<0.01 by a two-tailed Student's t-test. (E) Ki 67 proliferation marker staining of tumor shown in left panel. Scale bar, 50 μm. (F) Model of doxorubicin sensitization by YMU1 in malignant cancer cells. Both R2/R1 and TMPK are recruited to the site of doxorubicin-induced double-strand breaks, where dATP, dGTP, dCTP, dTTP and dUTP are site-specific synthesized. Inhibition of TMPK decreases dTTP formation at DNA damage sites, causing futile DNA repair due to dUTP incorporation.
Next, various human cancer cell lines were treated with YMU1, D6 or D7 for 72 h to test the potential of TMPK inhibitor in doxorubicin sensitization. After exposure to different concentration of doxorubicin for 4 h, cells were refreshed for viability analysis after 2 days and the IC50 value for doxorubicin in each of the cell lines was determined (FIG. 16A and Table 2).
The ability of YMU1 to sensitize non-tumorigenic mammary cycling H184B5F5/M10, MCF10A, primary human mammary epithelial (HMEC) and primary renal epithelial (HREC) cells and IMR-90 embryonic lung fibroblasts to doxorubicin was much weaker.
Cells plated into a 96-well plate (10^3 cells/well) were treated and cell viability was measured by MTS assay (Promega) (Cory et al., 1991). An annexin V-fluorescein isothiocyanate (FITC) apoptosis kit (Calbiochem) was used to detect apoptosis. The cell cycle analysis was performed by staining cells with propidium iodide (PI) for fluorescence-activated cell sorter (FACS) analysis with CellQuest software.

[4] = YMU1 2 μM 72 h, doxorubicin exposure and recovery

CCOC(=O)N1CCN(C(=O)Cn2sc3nc(C)cc(C)c3c2=O)CC1 [compound 21, Ethyl 4-(2-(4,6-dimethyl-3-oxoisothiazolo[5,4-b]pyridin-2(3H)-yl)acetyl) piperazine-1-carboxylate]
Ki ([1]; ATP 1 mM, TMP varied 2~200 μM): 220 ± 30 nM
Vmax ([1]; ATP varied, YMU1 0.25 μM): 212.0 ± 10.3 nmol/min/mg
Vmax ([1]; ATP varied, YMU1 0.5 μM): 94.8 ± 6.9 nmol/min/mg
Vmax ([1]; ATP varied, YMU1 1 μM): 55.7 ± 1.3 nmol/min/mg
Ki ([1]; TMP 200 μM, ATP varied 5~1000 μM): 180 ± 60 nM
Vmax ([1]; TMP varied, YMU1 0.125 μM): 258.9 ± 12.4 nmol/min/mg
Vmax ([1]; TMP varied, YMU1 0.25 μM): 180.6 ± 11.8 nmol/min/mg
Vmax ([1]; TMP varied, YMU1 0.5 μM): 91.8 ± 6.4 nmol/min/mg
Rad51 foci (MDA-MB231 cells [2]; [4]): persistent Rad51 foci
XRCC1 foci formation (MDA-MB231 cells [2]; [4]): increase in XRCC1 foci formation
numbers of DNA lesions formation (γH2AX focus staining) (MDA-MB231 cells [2]; YMU1 2 μM 72 h pre-treatment, doxorubicin 0.1 μM): did not affect numbers of DNA lesions formation
cells still γH2AX-positive (MDA-MB231 cells [2]; YMU1 2 μM 72 h pretreatment, recovery 48 h post-doxorubicin (0.1 μM) exposure): over 70%
DNA repair (comet assay, tail moment) (MDA-MB231 cells [3]): impairment of DNA repair
ability to sensitize to doxorubicin (panel of cell lines; non-tumorigenic H184B5F5/M10, MCF10A, HMEC, HREC cells and IMR-90 fibroblasts): much weaker
doxorubicin sensitization (panel of cell lines; two BRCA 1/2 deficient tumor cells defective in homologous recombination repair): not responsive
